Tests used:
MonoMac-6 (MM6) cells = experiment: PMA-induced TNF release from MonoMac-6 macrophages (Human TNF ELISA); assay type: cell-based; conditions: n=2; for mean TNF concentration after PMA stimulation: 48 h treatment, then PMA 10 ng/mL 5 h, untreated cells 41.1 pg/mL
Method: (§1) Cells from the human macrophage cell-line MonoMac-6 (MM6) (Ziegler-Heitbrock et al, Int. J. Cancer, 41, 456 (1988)) were cultured (37° C./5% CO2) in RPMI-1640 medium supplemented with 1 mM sodium pyruvate, × nonessential amino acids, 10 μg/mL insulin, 1 mM oxalacetic acid, 100 units/mL penicillin, 100 μg/mL streptomycin and 5% (v/v) fetal bovine serum. At the start of the experiment, MM6 cells were seeded in 96-well plates at a density of 1×10^5 cells/mL (100 μL per well in cell the viability experiments, and 150 μL per well in the TNF release experiments—see below).
(§2) The MM6 cells were treated (incubation conditions as above) with indicated final concentrations of the test drugs for 48 hours prior to quantification of cell viability/growth or stimulation with phorbol-12-myristate-13-acetate (PMA; Sigma Aldrich, Stockholm, Sweden) followed by measurement of PMA-induced TNF-release (see below for details).
To stimulate formation and release of tumor necrosis factor (TNF), the MM6 cells were incubated (37° C./5% CO2) for five hours (in RPMI-1640 with 5% fetal bovine serum with supplements as above) with PMA at a final concentration of 10 ng/mL.
After spinning down the cells after the different MM6 incubations/stimulations (see above and below), the concentrations of TNF in the supernatants were quantitated using Human TNF ELISA Kit II from BD Biosciences—Pharmingen (San Diego, USA) according to instructions supplied by the manufacturer.
(§3) Stock solutions of suplatast (tosylate salt purchased from American Custom Chemicals Corporation, San Diego, USA) and rosuvastatin (sodium salt; rosuvastatin was extracted and purified from commercially available Crestor® tablets and isolated as sodium salt as described in Bioorganic & Medicinal Chemistry, Vol. 5, No. 5, pp 437-444, 1997) were made in sterile saline.

[1] = MM6 cell growth/viability (WST-1 reagent); assay type: cell-based; conditions: human, MonoMac-6 (MM6) macrophage cell line, n=3, read-out: viability of MM6 cells compared to untreated MM6 cells; for viability at 48 h, 10 μM: drug alone 10 μM
Method: as §1, §2
MM6 cell growth/viability was measured using the Cell Proliferation Reagent WST-1 (Roche Diagnostics Scandinavia AB, Bromma, Sweden). The WST-1 reagent is designed to be used for spectrophotometric quantification of e.g. cell growth and viability and. was used according to the manufacturers' instructions.
as §3

SMILES | mean TNF concentration after PMA stimulation (MonoMac-6 (MM6) cells; drug alone 10 μM) | mean TNF concentration after PMA stimulation (MonoMac-6 (MM6) cells; drug alone 30 μM) | viability at 48 h, 1 μM ([1]; drug alone 1 μM) | viability at 48 h, 10 μM [1] | mean TNF concentration after PMA stimulation (MonoMac-6 (MM6) cells; drug alone 1 μM) | decrease in mean TNF concentration compared to the untreated cells (MonoMac-6 (MM6) cells; drug alone 1 μM) | decrease in mean TNF concentration compared to the untreated cells (MonoMac-6 (MM6) cells; drug alone 10 μM) | viability at 48 h, 30 μM ([1]; drug alone 30 μM)
CC(C)c1c(C(=O)Nc2ccccc2)c(-c2ccccc2)c(-c2ccc(F)cc2)n1CC[C@@H](O)C[C@@H](O)CC(=O)O [atorvastatin] | 133.6 pg/mL | 59.7 pg/mL | – | – | – | – | – | –
CCOCC(O)COc1ccc(NC(=O)CC[S+](C)C)cc1 (stereo not drawn) [suplatast] | 34.8 pg/mL | – | 94% | 92% | 39.6 pg/mL | 3.8% | 15.4% | –
CC(C)c1nc(N(C)S(C)(=O)=O)nc(-c2ccc(F)cc2)c1/C=C/[C@@H](O)C[C@@H](O)CC(=O)O [rosuvastatin] | 76.7 pg/mL | 84.0 pg/mL | – | 105% | – | – | – | 102%

Reference: US20100056552A1, “COMBINATION FOR USE IN THE TREATMENT OF INFLAMMATORY DISORDERS” (priority 2007, published 2010)
